Test results: patent US9073855B2, “BCL-2 selective apoptosis-inducing agents for the treatment of cancer and immune diseases” (AbbVie Inc., priority 2008, dated 2015)

How the values were obtained:
[1] = target: GST-Bcl-XL (Homo sapiens, UniProt Q07817); assay: TR-FRET binding assay, GST-Bcl-XL with F-Bak peptide probe; settings: TR-FRET Binding Affinity, GST-Bcl-XL, F-Bak peptide probe
Method in brief: (§1)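 Compounds were serially diluted in DMSO from a 50 μM starting solution (2× the starting concentration; 10% DMSO). Plates were incubated for 3 h at room temperature, and TR-FRET was read with 340/35 nm excitation and emission at 520/525 nm (F-Bak) and 495/510 nm (Tb antibody). Ki values were calculated using Wang's competitive-binding equation.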

[2] = test system: Canine platelets; assay: Platelet cell viability assay (platelet-rich plasma, Cell Titer Glo); assay type: cell-based; settings: Canis lupus familiaris, 5 h, isolated canine platelets ex vivo, five hours at 37° C.
Method: After the incubation, platelets were equilibrated to room temperature for 20 minutes and then an equal volume of Cell Titer Glo reagent (Promega Corporation) was added. Samples were mixed for two minutes and then allowed to equilibrate for an additional 10 minutes at room temperature. The luminescence generated from the samples was quantitated using an LJL Analyst plate reader.
The effect of compounds on platelet survival can be directly evaluated ex vivo by examining the viability of isolated canine platelets in the presence of various concentrations of compound.

[3] = test system: FL5.12/Bcl-2 cells; assay: FL5.12/Bcl-2 cell viability assay under IL-3 withdrawal (CellTitre Glo); assay type: cell-based, murine; settings: Mus musculus, IL-3 withdrawn 48 hrs, then 24 hrs with compound
Method in brief: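 Viability measured by CellTitre Glo after FL5.12/Bcl-2 murine cells, starved of IL-3 for 48 hrs, were treated with compounds for another 24 hrs. Killing reflects inhibition of Bcl-2 sequestration of Bim and Puma.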

[4] = target: GST-Bcl-2 (Homo sapiens, UniProt P10415); assay: TR-FRET binding assay, GST-Bcl-2 with F-Bak peptide probe; settings: TR-FRET Binding Affinity, GST-Bcl-2, F-Bak peptide probe
Method in brief: as §1

Sequence of GST-Bcl-2 (P10415 whole entry): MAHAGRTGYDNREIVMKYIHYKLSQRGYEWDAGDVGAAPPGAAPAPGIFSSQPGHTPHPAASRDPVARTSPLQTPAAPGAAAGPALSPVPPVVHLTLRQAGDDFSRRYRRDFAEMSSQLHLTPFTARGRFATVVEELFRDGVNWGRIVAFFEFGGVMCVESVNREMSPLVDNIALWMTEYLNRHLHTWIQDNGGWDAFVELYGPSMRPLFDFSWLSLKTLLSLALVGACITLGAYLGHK
Sequence of GST-Bcl-XL (Q07817 whole entry): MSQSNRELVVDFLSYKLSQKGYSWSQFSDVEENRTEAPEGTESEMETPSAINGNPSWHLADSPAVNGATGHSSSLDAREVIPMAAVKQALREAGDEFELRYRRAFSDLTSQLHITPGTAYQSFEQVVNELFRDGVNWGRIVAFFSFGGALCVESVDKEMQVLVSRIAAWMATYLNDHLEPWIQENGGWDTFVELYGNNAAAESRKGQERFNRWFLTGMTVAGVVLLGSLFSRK

Which Ki [1] does the source give for `CC1(C)CCC(CN2CCN(c3ccc(C(=O)NS(=O)(=O)c4ccc(NCCCN5CCCC5)c([N+](=O)[O-])c4)c(Oc4cccc5[nH]ccc45)c3)CC2)=C(c2ccc(OC(F)(F)F)cc2)C1` [Example 70, 4-[4-({4,4-dimethyl-2-[4-(trifluoromethoxy)phenyl]cyclohex-1-en-1-yl}methyl)piperazin-1-yl]-2-(1H-indol-4-yloxy)-N-({3-nitro-4-[(3-pyrrolidin-1-ylpropyl)amino]phenyl}sulfonyl)benzamide] here?
Its Ki is 74.4 nM.

What about the EC50 [2] of the same molecule?
Its EC50 is greater than 50000 nM.

And the EC50 [3]?
Its EC50 is 111 nM.

What about the Ki [4] of the same molecule?
Its Ki is 1.19 nM.

How did the Ki [1] turn out when `CN(C)CCOc1ccc(-c2ccc(Cl)cc2)c(CN2CCN(c3ccc(C(=O)NS(=O)(=O)c4ccc(NCC5CCOCC5)c(S(=O)(=O)C(F)(F)F)c4)c(Oc4ccccc4)c3)CC2)c1` [Example 120, 4-[4-({4′-chloro-4-[2-(dimethylamino)ethoxy]-1,1′-biphenyl-2-yl}methyl)piperazin-1-yl]-2-phenoxy-N-({4-[(tetrahydro-2H-pyran-4-ylmethyl)amino]-3-[(trifluoromethyl)sulfonyl]phenyl}sulfonyl)benzamide] was run?
Its Ki is 99.6 nM.

And the EC50 [2]?
The EC50 was greater than 50000 nM.

What about the EC50 [3] of the same molecule?
Its EC50 is 319 nM.

What about the Ki [4] of the same molecule?
Its Ki is 0.443 nM.

Which Ki [1] does the source give for `CC1(C)CCC(CN2CCN(c3ccc(C(=O)NS(=O)(=O)c4ccc(NCCCN5CCCC5)c([N+](=O)[O-])c4)c(Oc4cccc5[nH]ccc45)c3)CC2)=C(c2ccc(C(F)(F)F)cc2)C1` [Example 69, 4-[4-({4,4-dimethyl-2-[4-(trifluoromethyl)phenyl]cyclohex-1-en-1-yl}methyl)piperazin-1-yl]-2-(1H-indol-4-yloxy)-N-({3-nitro-4-[(3-pyrrolidin-1-ylpropyl)amino]phenyl}sulfonyl)benzamide] here?
The Ki was 92.1 nM.

And the EC50 [2]?
Its EC50 is greater than 50000 nM.

And the EC50 [3]?
Its EC50 is 75 nM.

And the Ki [4]?
The Ki was 1.25 nM.

How did the Ki [1] turn out when `CC1(C)CCC(CN2CCN(c3ccc(C(=O)NS(=O)(=O)c4ccc(NC5CCN(C6CCOCC6)CC5)c([N+](=O)[O-])c4)c(Oc4ccc5[nH]ccc5c4)c3)CC2)=C(c2ccc(Cl)cc2)C1` [Example 173, 4-(4-{[2-(4-chlorophenyl)-4,4-dimethylcyclohex-1-en-1-yl]methyl}piperazin-1-yl)-2-(1H-indol-5-yloxy)-N-({3-nitro-4-[(1-tetrahydro-2H-pyran-4-ylpiperidin-4-yl)amino]phenyl}sulfonyl)benzamide] was run?
Its Ki is 22.1 nM.

What about the EC50 [2] of the same molecule?
Its EC50 is greater than 50000 nM.

And the EC50 [3]?
The EC50 was 11 nM.

And the Ki [4]?
The Ki was 0.108 nM.

With `O=C(NS(=O)(=O)c1ccc(NCC2CCOCC2)c([N+](=O)[O-])c1)c1ccc(N2CCN(Cc3ccccc3-c3ccc(Cl)cc3)CC2)cc1Oc1ccc2c(c1)CCN2` [Example 140, 4-{4-[(4′-chloro-1,1′-biphenyl-2-yl)methyl]piperazin-1-yl}-2-(2,3-dihydro-1H-indol-5-yloxy)-N-({3-nitro-4-[(tetrahydro-2H-pyran-4-ylmethyl)amino]phenyl}sulfonyl)benzamide] as the molecule, how does the Ki [1] read?
The Ki was greater than 660 nM.

What about the EC50 [2] of the same molecule?
The EC50 was greater than 50000 nM.

What about the EC50 [3] of the same molecule?
Its EC50 is 2130 nM.

What about the Ki [4] of the same molecule?
The Ki was 4.73 nM.

Which Ki [1] does the source give for `CC1(C)CCC(CN2CCN(c3ccc(C(=O)NS(=O)(=O)c4ccc(NCCCN5CCOCC5)c([N+](=O)[O-])c4)c(Oc4ccccc4)c3)CC2)=C(c2ccc(Cl)cc2)C1` [Example 18, 4-(4-{[2-(4-chlorophenyl)-4,4-dimethylcyclohex-1-en-1-yl]methyl}piperazin-1-yl)-N-({4-[(3-morpholin-4-ylpropyl)amino]-3-nitrophenyl}sulfonyl)-2-phenoxybenzamide] here?
The Ki was 8.13 nM.

And the EC50 [2]?
Its EC50 is 29700 nM.

What about the EC50 [3] of the same molecule?
Its EC50 is 123 nM.

And the Ki [4]?
The Ki was 0.238 nM.

Which results are given for `CN(C)CCCOc1ccc(S(=O)(=O)NC(=O)c2ccc(N3CCN(Cc4ccccc4-c4ccc(Cl)cc4)CC3)cc2Oc2ccccc2)cc1[N+](=O)[O-]` [Example 94, 4-{4-[(4′-chloro-1,1′-biphenyl-2-yl)methyl]piperazin-1-yl}-N-({4-[3-(dimethylamino)propoxy]-3-nitrophenyl}sulfonyl)-2-phenoxybenzamide]?
Ki [1]: 2.32 nM; EC50 [2]: 23800 nM; EC50 [3]: 40 nM; Ki [4]: 0.07 nM

Which Ki [1] does the source give for `CN(C)CCCNc1ccc(S(=O)(=O)NC(=O)c2ccc(N3CCN(Cc4ccccc4-c4ccc(Cl)cc4)CC3)cc2Oc2cccc3[nH]ccc23)cc1[N+](=O)[O-]` [Example 46, 4-{4-[(4′-chloro-1,1′-biphenyl-2-yl)methyl]piperazin-1-yl}-N-[(4-{[3-(dimethylamino)propyl]amino}-3-nitrophenyl)sulfonyl]-2-(1H-indol-4-yloxy)benzamide] here?
The Ki was 19 nM.

What about the EC50 [2] of the same molecule?
Its EC50 is 30000 nM.

And the EC50 [3]?
The EC50 was 41 nM.

And the Ki [4]?
Its Ki is 0.159 nM.

How did the Ki [1] turn out when `O=C(NS(=O)(=O)c1ccc(NCC2CCOCC2)c([N+](=O)[O-])c1)c1ccc(N2CCN(Cc3ccccc3-c3ccc(Cl)cc3)CC2)cc1Oc1cccc2[nH]ccc12` [Example 45, 4-{4-[(4′-chloro-1,1′-biphenyl-2-yl)methyl]piperazin-1-yl}-2-(1H-indol-4-yloxy)-N-({3-nitro-4-[(tetrahydro-2H-pyran-4-ylmethyl)amino]phenyl}sulfonyl)benzamide] was run?
Its Ki is greater than 660 nM.

And the EC50 [2]?
The EC50 was greater than 50000 nM.

What about the EC50 [3] of the same molecule?
The EC50 was 139 nM.

And the Ki [4]?
The Ki was 0.828 nM.

What does the source list for `CN(C)CCCNc1ccc(S(=O)(=O)NC(=O)c2ccc(N3CCN(CC4=C(c5ccc(Cl)cc5)CC(C)(C)CC4)CC3)cc2Oc2ccc3[nH]ccc3c2)cc1C#N` [Example 172, 4-(4-{[2-(4-chlorophenyl)-4,4-dimethylcyclohex-1-en-1-yl]methyl}piperazin-1-yl)-N-[(3-cyano-4-{[3-(dimethylamino)propyl]amino}phenyl)sulfonyl]-2-(1H-indol-5-yloxy)benzamide]?
Ki [1]: 65.7 nM; EC50 [2]: > 50000 nM; EC50 [3]: 194 nM; Ki [4]: 2.05 nM

`CN1CCC(CNc2ccc(S(=O)(=O)NC(=O)c3ccc(N4CCN(CC5=C(c6ccc(Cl)cc6)CC(C)(C)CC5)CC4)cc3Oc3cccc4[nH]ccc34)cc2[N+](=O)[O-])CC1` [Example 105, 4-(4-{[2-(4-chlorophenyl)-4,4-dimethylcyclohex-1-en-1-yl]methyl}piperazin-1-yl)-2-(1H-indol-4-yloxy)-N-[(4-{[(1-methylpiperidin-4-yl)methyl]amino}-3-nitrophenyl)sulfonyl]benzamide] was tested. Which Ki [1] did it give?
Its Ki is 5.02 nM.

What about the EC50 [2] of the same molecule?
The EC50 was 30300 nM.

And the EC50 [3]?
The EC50 was 13 nM.

What about the Ki [4] of the same molecule?
The Ki was 0.08 nM.

`CC1(C)CCC(CN2CCN(c3ccc(C(=O)NS(=O)(=O)c4ccc(NCCCN5CCOCC5)c([N+](=O)[O-])c4)c(Oc4cccc5[nH]ccc45)c3)CC2)=C(c2ccc(Cl)cc2)C1` [Example 55, 4-(4-{[2-(4-chlorophenyl)-4,4-dimethylcyclohex-1-en-1-yl]methyl}piperazin-1-yl)-2-(1H-indol-4-yloxy)-N-({4-[(3-morpholin-4-ylpropyl)amino]-3-nitrophenyl}sulfonyl)benzamide] was tested. Which Ki [1] did it give?
Its Ki is 24.9 nM.

What about the EC50 [2] of the same molecule?
The EC50 was 36000 nM.

And the EC50 [3]?
The EC50 was 22 nM.

What about the Ki [4] of the same molecule?
Its Ki is 0.196 nM.

What does the source list for `CC1(C)CCC(c2ccc(Cl)cc2)=C(CN2CCN(c3ccc(C(=O)NS(=O)(=O)c4ccc(NCCCN5CCOCC5)c([N+](=O)[O-])c4)c(Oc4cccc5[nH]ccc45)c3)CC2)C1` [Example 54, 4-(4-{[2-(4-chlorophenyl)-5,5-dimethylcyclohex-1-en-1-yl]methyl}piperazin-1-yl)-2-(1H-indol-4-yloxy)-N-({4-[(3-morpholin-4-ylpropyl)amino]-3-nitrophenyl}sulfonyl)benzamide]?
Ki [1]: 82 nM; EC50 [2]: > 50000 nM; EC50 [3]: 64 nM; Ki [4]: 0.757 nM

`CC1(C)CCC(CN2CCN(c3ccc(C(=O)NS(=O)(=O)c4ccc(NC5CCN(C6CCCC6)CC5)c([N+](=O)[O-])c4)c(Oc4ccc5[nH]ccc5c4)c3)CC2)=C(c2ccc(Cl)cc2)C1` [Example 26, 4-(4-{[2-(4-chlorophenyl)-4,4-dimethylcyclohex-1-en-1-yl]methyl}piperazin-1-yl)-N-({4-[(1-cyclopentylpiperidin-4-yl)amino]-3-nitrophenyl}sulfonyl)-2-(1H-indol-5-yloxy)benzamide] was tested. Which Ki [1] did it give?
The Ki was greater than 660 nM.

What about the EC50 [2] of the same molecule?
Its EC50 is greater than 50000 nM.

And the EC50 [3]?
The EC50 was 35 nM.

What about the Ki [4] of the same molecule?
Its Ki is 0.14 nM.

For `CN(C)CCCNc1ccc(S(=O)(=O)NC(=O)c2ccc(N3CCN(CC4=C(c5ccc(Cl)cc5)CCC(C)(C)C4)CC3)cc2Oc2cccc3[nH]ccc23)cc1[N+](=O)[O-]` [Example 56, 4-(4-{[2-(4-chlorophenyl)-5,5-dimethylcyclohex-1-en-1-yl]methyl}piperazin-1-yl)-N-[(4-{[3-(dimethylamino)propyl]amino}-3-nitrophenyl)sulfonyl]-2-(1H-indol-4-yloxy)benzamide], which Ki [1] is on record?
Its Ki is 12.9 nM.

And the EC50 [2]?
The EC50 was 27000 nM.

And the EC50 [3]?
The EC50 was 49 nM.

What about the Ki [4] of the same molecule?
Its Ki is 0.268 nM.

What does the source list for `CN1CCN(CCCNc2ccc(S(=O)(=O)NC(=O)c3ccc(N4CCN(CC5=C(c6ccc(Cl)cc6)CC(C)(C)CC5)CC4)cc3Oc3cccc4[nH]ccc34)cc2[N+](=O)[O-])CC1` [Example 99, 4-(4-{[2-(4-chlorophenyl)-4,4-dimethylcyclohex-1-en-1-yl]methyl}piperazin-1-yl)-2-(1H-indol-4-yloxy)-N-[(4-{[3-(4-methylpiperazin-1-yl)propyl]amino}-3-nitrophenyl)sulfonyl]benzamide]?
Ki [1]: 5.53 nM; EC50 [2]: 21700 nM; EC50 [3]: 9 nM; Ki [4]: 0.04 nM
